From PubChem BioAssay AID2060333 (Molecular Pharmacology Branch, DTP, NCI, 2025)
pIC50: −log10 of the molar value.

Tested on: 845751-090-R-J2-PDC tumor spheroid viability
Assay: Anticancer human tumor 845751-090-R-J2-PDC patient-derived head and neck squamous carcinoma cell line growth inhibition [IpAb]
Conditions: spheroids with HUVEC and MSC; for pIC50: curve of first compound; for viability, T/C: stronger effect = lower value
Method in brief: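 Spheroids of 60% malignant cells, 25% HUVEC and 15% MSC were exposed to targeted agents combined with ipatasertib or abemaciclib. Doses started at or near clinical Cmax (10 microM when unknown) and fell in half-log steps.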

[1] = second compound 0.1 µM, first compound 0.0316 µM
[2] = second compound 0.1 µM, first compound 0.1 µM
[3] = second compound 0.1 µM, first compound 0.316 µM
[4] = second compound 0.1 µM, first compound 1 µM
[5] = second compound 0.1 µM, first compound 3.16 µM
[6] = second compound 0.1 µM, first compound 10 µM
[7] = second compound 0.316 µM, first compound 0.0316 µM
[8] = second compound 0.316 µM, first compound 0.1 µM
[9] = second compound 0.316 µM, first compound 0.316 µM
[10] = second compound 0.316 µM, first compound 1 µM
[11] = second compound 0.316 µM, first compound 3.16 µM
[12] = second compound 0.316 µM, first compound 10 µM
[13] = second compound 1 µM, first compound 0.0316 µM
[14] = second compound 1 µM, first compound 0.1 µM
[15] = second compound 1 µM, first compound 0.316 µM
[16] = second compound 1 µM, first compound 1 µM
[17] = second compound 1 µM, first compound 3.16 µM
[18] = second compound 1 µM, first compound 10 µM
[19] = second compound 3.16 µM, first compound 0.0316 µM
[20] = second compound 3.16 µM, first compound 0.1 µM
[21] = second compound 3.16 µM, first compound 0.316 µM
[22] = second compound 3.16 µM, first compound 1 µM
[23] = second compound 3.16 µM, first compound 3.16 µM
[24] = second compound 3.16 µM, first compound 10 µM
[25] = second compound 10 µM, first compound 0.0316 µM
[26] = second compound 10 µM, first compound 0.1 µM
[27] = second compound 10 µM, first compound 0.316 µM
[28] = second compound 10 µM, first compound 1 µM
[29] = second compound 10 µM, first compound 3.16 µM
[30] = second compound 10 µM, first compound 10 µM
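Note: spheroids exposed to compounds for 7 days before readout.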
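Throughout, for viability, T/C: CTG3D luminescence normalised so that 100% = DMSO vehicle control.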

| SMILES | pIC50 (second compound 0.1 µM) | pIC50 (second compound 0.316 µM) | pIC50 (second compound 1 µM) | pIC50 (second compound 3.16 µM) | pIC50 (second compound 10 µM) | viability, T/C [1] | viability, T/C [2] | viability, T/C [3] | viability, T/C [4] | viability, T/C [7] | viability, T/C [8] | viability, T/C [9] | viability, T/C [10] | viability, T/C [13] | viability, T/C [14] | viability, T/C [15] | viability, T/C [16] | viability, T/C [19] | viability, T/C [20] | viability, T/C [21] | further results |
| --- | --- | --- | --- | --- | --- | --- | --- | --- | --- | --- | --- | --- | --- | --- | --- | --- | --- | --- | --- | --- | --- |
| CC1(C)CCC(CN2CCN(c3ccc(C(=O)NS(=O)(=O)c4ccc(NCC5CCOCC5)c([N+](=O)[O-])c4)c(Oc4cnc5[nH]ccc5c4)c3)CC2)=C(c2ccc(Cl)cc2)C1 + CC(C)NCC(C(=O)N1CCN(c2ncnc3c2C(C)CC3O)CC1)c1ccc(Cl)cc1 | 5.24 | > 7.50 | > 7.50 | > 7.50 | > 7.50 | 65.2% | 83% | 81.9% | 67% | 30.5% | 38.3% | 53.5% | 44% | 28.6% | 27.6% | 54.8% | 33.1% | 26.7% | 27.3% | 31.5% | viability, T/C [5]: 111%; viability, T/C [6]: 20.9%; viability, T/C [11]: 47%; viability, T/C [12]: 14.4%; viability, T/C [17]: 33.6%; viability, T/C [18]: 7.48%; viability, T/C [22]: 29.5%; viability, T/C [23]: 42.4%; viability, T/C [24]: 5.79%; viability, T/C [25]: 13.1%; viability, T/C [26]: 14.6%; viability, T/C [27]: 38.2%; viability, T/C [28]: 15.5%; viability, T/C [29]: 22%; viability, T/C [30]: 3.52% |
| COc1c(OCCCN2CCOCC2)ccc2c3n(c(=NC(=O)c4cnc(N)nc4)nc12)CCN3 + CC(C)NCC(C(=O)N1CCN(c2ncnc3c2C(C)CC3O)CC1)c1ccc(Cl)cc1 | 8.14 | > 8.50 | > 8.50 | > 8.50 | > 8.50 | 32.1% | 19.5% | 16.5% | 3.52% | 38.4% | 17% | 9.83% | 5.73% | 17.1% | 9.67% | 5.4% | 2.49% | 17.7% | 7.76% | 3.93% | viability, T/C (second compound 0.1 µM, first compound 0.00316 µM): 60.9%; viability, T/C (second compound 0.1 µM, first compound 0.01 µM): 46.1%; viability, T/C (second compound 0.316 µM, first compound 0.00316 µM): 26.4%; viability, T/C (second compound 0.316 µM, first compound 0.01 µM): 27.3%; viability, T/C (second compound 1 µM, first compound 0.00316 µM): 34.6%; viability, T/C (second compound 1 µM, first compound 0.01 µM): 21.8%; viability, T/C (second compound 3.16 µM, first compound 0.00316 µM): 22.5%; viability, T/C (second compound 3.16 µM, first compound 0.01 µM): 21.9%; viability, T/C [22]: 2.76%; viability, T/C (second compound 10 µM, first compound 0.00316 µM): 17.4%; viability, T/C (second compound 10 µM, first compound 0.01 µM): 17.7%; viability, T/C [25]: 13.4%; viability, T/C [26]: 5.23%; viability, T/C [27]: 2.57%; viability, T/C [28]: 1.62% |
| Cc1nc(NC(=O)N2CCCC2C(N)=O)sc1-c1ccnc(C(C)(C)C(F)(F)F)c1 (stereo not given) + CC(C)NCC(C(=O)N1CCN(c2ncnc3c2C(C)CC3O)CC1)c1ccc(Cl)cc1 | 6.97 | > 7.50 | > 7.50 | > 7.50 | > 7.50 | 49.2% | 54% | 27.6% | 19.2% | 24.5% | 30.9% | 20.9% | 15.6% | 17.4% | 21.7% | 18% | 13.8% | 16% | 15.8% | 14.1% | viability, T/C [5]: 15.5%; viability, T/C [6]: 8.29%; viability, T/C [11]: 13.1%; viability, T/C [12]: 7.03%; viability, T/C [17]: 10.6%; viability, T/C [18]: 7.97%; viability, T/C [22]: 12.7%; viability, T/C [23]: 9.92%; viability, T/C [24]: 7.77%; viability, T/C [25]: 13.9%; viability, T/C [26]: 13.1%; viability, T/C [27]: 17.2%; viability, T/C [28]: 12%; viability, T/C [29]: 9.58%; viability, T/C [30]: 5.74% |
